# What was measured:
# [1] = test system: MCF7; assay: cells; assay type: functional, cell-based; details: Homo sapiens, MCF7, 144 h
# Description: Antiproliferative activity against human MCF7 cells assessed as growth inhibition after 144 hrs by crystal violet staining method
# [2] = test system: MDA-MB-231; assay: cells; assay type: functional, cell-based; details: Homo sapiens, MDA-MB-231, 144 h
# Description: Antiproliferative activity against human MDA-MB-231 cells assessed as growth inhibition after 144 hrs by crystal violet staining method
# [3] = test system: HT-29; assay: cells; assay type: functional, cell-based; details: Homo sapiens, HT-29, 144 h
# Description: Antiproliferative activity against human HT-29 cells assessed as growth inhibition after 144 hrs by crystal violet staining method
# [4] = test system: Mus musculus; assay: Antiinflammatory activity in overnight fasted Kunming mouse assessed as inhibition of xylene-induced ear swelling at 4 mg/kg, ip administered before challenge for 5 days measured 1 hr post xylene challenge; assay type: functional; details: route intraperitoneal
# [5] = molecular target: T1, Prostaglandin G/H synthase 1 (Ovis aries) (UniProt P05979); assay: Inhibition of ovine COX1 at 10 uM by ELISA
# T1 sequence (whole entry): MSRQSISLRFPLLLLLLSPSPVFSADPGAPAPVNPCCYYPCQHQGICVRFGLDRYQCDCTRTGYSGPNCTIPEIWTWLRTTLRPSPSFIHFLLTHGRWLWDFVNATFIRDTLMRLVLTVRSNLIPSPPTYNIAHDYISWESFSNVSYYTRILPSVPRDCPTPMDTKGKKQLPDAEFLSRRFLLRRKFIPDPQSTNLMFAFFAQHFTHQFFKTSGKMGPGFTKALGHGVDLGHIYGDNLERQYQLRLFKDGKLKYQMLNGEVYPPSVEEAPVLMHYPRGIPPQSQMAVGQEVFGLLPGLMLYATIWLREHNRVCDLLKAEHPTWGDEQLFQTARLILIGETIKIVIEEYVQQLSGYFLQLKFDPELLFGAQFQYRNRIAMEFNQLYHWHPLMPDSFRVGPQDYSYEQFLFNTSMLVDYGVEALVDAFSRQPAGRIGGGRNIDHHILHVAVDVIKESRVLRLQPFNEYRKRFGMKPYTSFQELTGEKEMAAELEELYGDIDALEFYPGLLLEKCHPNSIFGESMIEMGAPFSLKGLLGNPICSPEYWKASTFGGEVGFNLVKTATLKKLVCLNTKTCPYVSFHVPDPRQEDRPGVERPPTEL
# [6] = test system: Mus musculus; assay: Antiinflammatory activity in overnight fasted Kunming mouse assessed as inhibition of xylene-induced ear swelling at 30 mg/kg, ip administered before challenge for 5 days measured 1 hr post xylene challenge; assay type: functional; details: route intraperitoneal
SMILES,IC50 [1],IC50 [2],IC50 [3],inhibition in vivo at 4 mg/kg [4],inhibition [5],inhibition in vivo at 30 mg/kg [6]
CNC(=S)N1CCC(=C2c3ccc(Cl)cc3CCc3cccnc32)CC1,9.4 µM,7.1 µM,9.6 µM,26.1%,,
CCOC(=O)N1CCC(=C2c3ccc(Cl)cc3CCc3cccnc32)CC1 [LORATADINE],7.5 µM,8.4 µM,6.2 µM,,,
S=C(NC1CCCCC1)N1CCC(=C2c3ccc(Cl)cc3CCc3cccnc32)CC1,5.1 µM,8.1 µM,6.2 µM,30.4%,11.6%,
COc1ccccc1NC(=S)N1CCC(=C2c3ccc(Cl)cc3CCc3cccnc32)CC1,7.6 µM,10.4 µM,9.2 µM,21.7%,,
O=c1[nH]cc(F)c(=O)[nH]1 [FLUOROURACIL],4.7 µM,,,,,
CC(=O)Oc1ccccc1C(=O)O,,,,,29%,
CC(C)Cc1ccc(C(C)C(=O)O)cc1 (stereo not drawn) [IBUPROFEN],,,,8.69%,,39.1%
Cc1ccccc1NC(=S)N1CCC(=C2c3ccc(Cl)cc3CCc3cccnc32)CC1,5.4 µM,4.7 µM,6.6 µM,13%,,
S=C(Nc1ccccc1)N1CCC(=C2c3ccc(Cl)cc3CCc3cccnc32)CC1,5.6 µM,6.4 µM,6.7 µM,21.7%,,
